Tests used:
[1] = Plasma clearance in human liver microsomes; assay type: ADME, Microsome
Cytochrome P450 3A4 = Cytochrome P450 3A4 (Homo sapiens, UniProt P08684); assay: In vitro inhibition of Cytochrome P450 3A4; assay type: ADME
[2] = test system: Human immunodeficiency virus 1; assay: Viral spread inhibitory concentration against HIV-1 strain K-60C in MT-4 human T-lymphoid cells; assay type: functional; settings: Human immunodeficiency virus 1, T-lymphoid; read-out: CIC95
[3] = test system: Human immunodeficiency virus 1; assay: Viral spread inhibitory concentration against HIV-1 strain NL4-3 in MT-4 human T-lymphoid cells; assay type: functional; settings: Human immunodeficiency virus 1, T-lymphoid; read-out: CIC95
[4] = test system: Human immunodeficiency virus 1; assay: Viral spread inhibitory concentration against HIV-1 strain Q-60C in MT-4 human T-lymphoid cells; assay type: functional; settings: Human immunodeficiency virus 1, T-lymphoid; read-out: CIC95
MT4 = assay: Viral spread inhibitory concentration against HIV-1 strain V-18C in MT-4 human T-lymphoid cells; assay type: functional; settings: read-out: CIC95
[5] = target: T1, Human immunodeficiency virus type 1 protease (Human immunodeficiency virus 1, UniProt Q72874); assay: In vitro inhibition of HIV-1 protease (NL4-3 strain).
[6] = Cmax value determined in dog at a dose of 10 mg/kg by oral administration; assay type: ADME, organism-based, Canis lupus familiaris; set-up: dose 10 mg/kg, route oral; settings: in vivo
[7] = Area under curve determined in dog at a dose of 10 mg/kg by oral administration; assay type: ADME, organism-based, Canis lupus familiaris; set-up: dose 10 mg/kg, route oral; settings: in vivo
[8] = Area under curve determined in dog at a dose of 10 mg/kg by oral administration along with […] (10 mg/kg); settings: in vivo
Cytochrome P450 2D6 = Cytochrome P450 2D6 (Homo sapiens, UniProt P10635); assay: In vitro inhibition of Cytochrome P450 2D6; assay type: ADME
Chain of Cytochrome P450 2D6 (P10635 whole entry): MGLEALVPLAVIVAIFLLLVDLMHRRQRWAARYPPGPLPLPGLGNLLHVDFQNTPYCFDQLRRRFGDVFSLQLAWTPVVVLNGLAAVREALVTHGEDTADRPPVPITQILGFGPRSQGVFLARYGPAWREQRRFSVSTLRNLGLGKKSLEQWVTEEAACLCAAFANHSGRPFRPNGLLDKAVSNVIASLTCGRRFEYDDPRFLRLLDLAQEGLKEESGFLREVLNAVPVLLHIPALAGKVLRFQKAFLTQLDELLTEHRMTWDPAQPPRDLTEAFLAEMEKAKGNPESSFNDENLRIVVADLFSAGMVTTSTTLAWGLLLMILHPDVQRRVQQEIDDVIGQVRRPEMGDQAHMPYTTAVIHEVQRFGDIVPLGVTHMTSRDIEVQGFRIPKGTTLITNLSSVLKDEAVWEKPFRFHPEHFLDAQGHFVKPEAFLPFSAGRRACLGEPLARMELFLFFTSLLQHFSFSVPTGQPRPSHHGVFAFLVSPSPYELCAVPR

[9] = target: T1, Human immunodeficiency virus type 1 protease; assay: Inhibitory activity against HIV-1 protease (K-60C strain)
[10] = target: T1, Human immunodeficiency virus type 1 protease; assay: Inhibitory activity against HIV-1 protease (V-18C strain)
[11] = Cmax value determined in dog at a dose of 5 mg/kg by oral administration; assay type: ADME, organism-based, Canis lupus familiaris; set-up: dose 5 mg/kg, route oral; settings: in vivo
[12] = target: T1, Human immunodeficiency virus type 1 protease; assay: Inhibitory activity against HIV-1 protease (Q-60C strain)
Canis familiaris = assay: Cmax value determined in dog at a dose of 10 mg/kg by oral administration along with indinavir (10 mg/kg); settings: in vivo
[13] = Cmax value determined in dog at a dose of […] by oral administration along with […] (10 mg/kg); assay type: ADME, organism-based, Canis lupus familiaris; set-up: route oral; settings: in vivo

Chain of Cytochrome P450 3A4 (P08684 whole entry): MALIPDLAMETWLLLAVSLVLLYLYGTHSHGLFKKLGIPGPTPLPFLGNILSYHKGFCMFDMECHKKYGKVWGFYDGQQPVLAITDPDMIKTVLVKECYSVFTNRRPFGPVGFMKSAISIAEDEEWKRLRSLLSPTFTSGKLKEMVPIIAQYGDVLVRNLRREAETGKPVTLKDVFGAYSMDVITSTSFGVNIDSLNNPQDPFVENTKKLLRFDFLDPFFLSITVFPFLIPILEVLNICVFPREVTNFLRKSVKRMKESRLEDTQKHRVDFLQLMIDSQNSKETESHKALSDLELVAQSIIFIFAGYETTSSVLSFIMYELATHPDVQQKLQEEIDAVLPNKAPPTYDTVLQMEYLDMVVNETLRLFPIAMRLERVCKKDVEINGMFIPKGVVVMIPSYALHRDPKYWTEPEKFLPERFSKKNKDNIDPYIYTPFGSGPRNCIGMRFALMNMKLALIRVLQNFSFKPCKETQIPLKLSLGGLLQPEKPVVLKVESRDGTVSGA

SMILES	IC95 [2] [nM]	IC95 [3] [nM]	IC95 [4] [nM]	IC95 (MT4) [nM]	IC50 [5] [nM]	also measured
O=C(N[C@H]1c2ccccc2OC[C@H]1O)[C@H](Cc1cccnc1)C[C@H](O)CN1CCN(Cc2ccn(-c3ccc(Cl)cc3)c2)C[C@H]1C(=O)NCC(F)(F)F	15	≤ 8	≤ 8	≤ 8	0.03	CLint scaled [1]: 229 mL/min/kg; IC50 (Cytochrome P450 3A4): 50 nM
O=C(N[C@H]1c2ccccc2OC[C@H]1O)[C@H](Cc1cccnc1)C[C@H](O)CN1CCN(Cc2ccn(-c3ccc(F)cc3)c2)C[C@H]1C(=O)NCC(F)(F)F	15	15	15	–	0.05	–
O=C(N[C@H]1c2ccccc2OC[C@H]1O)[C@H](Cc1cccnc1)C[C@H](O)CN1CCN(Cc2ccn(-c3cc(Cl)c(Cl)c(Cl)c3)c2)C[C@H]1C(=O)NCC(F)(F)F	31	≤ 8	≤ 8	15	0.02	–
O=C(N[C@H]1c2ccccc2OC[C@H]1O)[C@H](Cc1cccnc1)C[C@H](O)CN1CCN(Cc2ccn(-c3cccc(C(F)(F)F)c3)c2)C[C@H]1C(=O)NCC(F)(F)F	31	15	≤ 8	–	0.05	–
O=C(N[C@H]1c2ccccc2OC[C@H]1O)[C@H](Cc1cccnc1)C[C@H](O)CN1CCN(Cc2ccn(-c3ccccc3F)c2)C[C@H]1C(=O)NCC(F)(F)F	62	15	31	–	0.16	–
O=C(N[C@H]1c2ccccc2OC[C@H]1O)[C@H](Cc1cccnc1)C[C@H](O)CN1CCN(Cc2ccn(-c3cccc(Cl)c3)c2)C[C@H]1C(=O)NCC(F)(F)F	≤ 8	≤ 8	≤ 8	≤ 8	0.05	CLint scaled [1]: 307 mL/min/kg; IC50 (Cytochrome P450 3A4): 80 nM
N#Cc1cccc(-n2ccc(CN3CCN(C[C@@H](O)C[C@@H](Cc4cccnc4)C(=O)N[C@H]4c5ccccc5OC[C@H]4O)[C@H](C(=O)NCC(F)(F)F)C3)c2)c1	62	62	≤ 31	–	0.15	–
O=C(N[C@H]1c2ccccc2OC[C@H]1O)[C@H](Cc1cccnc1)C[C@H](O)CN1CCN(Cc2ccn(-c3ccc(F)c(F)c3F)c2)C[C@H]1C(=O)NCC(F)(F)F	15	≤ 8	≤ 8	≤ 8	0.05	CLint scaled [1]: 218 mL/min/kg; Cmax [6]: 1.9 µM; AUC [7]: 4.4 µM·h; IC50 (Cytochrome P450 3A4): 50 nM; AUC [8]: 26.6 µM·h
N#Cc1ccc(-n2ccc(CN3CCN(C[C@@H](O)C[C@@H](Cc4cccnc4)C(=O)N[C@H]4c5ccccc5OC[C@H]4O)[C@H](C(=O)NCC(F)(F)F)C3)c2)cc1	125	62	31	–	0.1	–
O=C(N[C@H]1c2ccccc2OC[C@H]1O)[C@H](Cc1cccnc1)C[C@H](O)CN1CCN(Cc2ccn(-c3ccc(C(F)(F)F)cc3)c2)C[C@H]1C(=O)NCC(F)(F)F	15	15	≤ 8	–	0.04	–
Cc1ccccc1-n1ccc(CN2CCN(C[C@@H](O)C[C@@H](Cc3cccnc3)C(=O)N[C@H]3c4ccccc4OC[C@H]3O)[C@H](C(=O)NCC(F)(F)F)C2)c1	125	≤ 8	31	31	0.16	–
O=C(N[C@H]1c2ccccc2OC[C@H]1O)[C@H](Cc1cccnc1)C[C@H](O)CN1CCN(Cc2ccn(-c3ccccc3Cl)c2)C[C@H]1C(=O)NCC(F)(F)F	62	≤ 8	31	31	0.18	–
O=C(N[C@H]1c2ccccc2OC[C@H]1O)[C@H](Cc1cccnc1)C[C@H](O)CN1CCN(Cc2ccn(-c3ccc(Cl)c(Cl)c3)c2)C[C@H]1C(=O)NCC(F)(F)F	31	15	≤ 8	15	0.02	–
O=C(N[C@H]1c2ccccc2OC[C@H]1O)[C@H](Cc1cccnc1)C[C@H](O)CN1CCN(Cc2ccn(-c3cccc(F)c3)c2)C[C@H]1C(=O)NCC(F)(F)F	31	15	15	–	0.05	–
Cc1ccc(-n2ccc(CN3CCN(C[C@@H](O)C[C@@H](Cc4cccnc4)C(=O)N[C@H]4c5ccccc5OC[C@H]4O)[C@H](C(=O)NCC(F)(F)F)C3)c2)cc1	15	15	≤ 8	15	0.06	–
O=C(N[C@H]1c2ccccc2OC[C@H]1O)[C@H](Cc1cccnc1)C[C@H](O)CN1CCN(Cc2ccn(-c3ccccc3)c2)C[C@H]1C(=O)NCC(F)(F)F	31	15	≤ 8	≤ 8	0.11	CLint scaled [1]: 332 mL/min/kg; Cmax [6]: 5.3 µM; AUC [7]: 7 µM·h; IC50 (Cytochrome P450 3A4): 400 nM; IC50 (Cytochrome P450 2D6): 12000 nM; IC50 [9]: 2.7 nM; IC50 [10]: 2.49 nM
Cc1cccc(-n2ccc(CN3CCN(C[C@@H](O)C[C@@H](Cc4cccnc4)C(=O)N[C@H]4c5ccccc5OC[C@H]4O)[C@H](C(=O)NCC(F)(F)F)C3)c2)c1	62	≤ 8	≤ 8	≤ 8	0.1	–
N#Cc1ccccc1-n1ccc(CN2CCN(C[C@@H](O)C[C@@H](Cc3cccnc3)C(=O)N[C@H]3c4ccccc4OC[C@H]3O)[C@H](C(=O)NCC(F)(F)F)C2)c1	250	46	62	–	0.46	–
O=C(N[C@H]1c2ccccc2OC[C@H]1O)[C@H](Cc1cccnc1)C[C@H](O)CN1CCN(Cc2ccn(-c3ccccc3C(F)(F)F)c2)C[C@H]1C(=O)NCC(F)(F)F	500	38	500	–	1.32	–
O=C(N[C@H]1c2ccccc2OC[C@H]1O)[C@H](Cc1cccnc1)C[C@H](O)CN1CCN(Cc2ccc(-c3ccccc3)o2)C[C@H]1C(=O)NCC(F)(F)F	≤ 8	≤ 8	≤ 8	≤ 8	–	CLint scaled [1]: 238 mL/min/kg; Cmax [11]: 0.1 µM; IC50 [9]: 0.06 nM; IC50 [12]: 0.07 nM; IC50 [10]: 0.15 nM; Cmax (Canis familiaris): 6.1 µM
CC(C)(C)NC(=O)[C@@H]1CN(Cc2cccnc2)CCN1C[C@@H](O)C[C@@H](Cc1ccccc1)C(=O)N[C@H]1c2ccccc2C[C@H]1O.O	> 1000	50	> 1000	> 1000	–	Cmax [13]: 11.4 µM; AUC [8]: 12.5 µM·h

Reference: ChEMBL document CHEMBL1146635 (Bioorg Med Chem Lett, 2003)
